Assay results from US8278345B2, “Inhibitors of glutaminyl cyclase” (Probiodrug AG, priority 2006, dated 2012).
pIC50: −log10 of the molar value.

Target: hQC (Homo sapiens, UniProt Q16769)
Test: Inhibitor assay for glutaminyl cyclase activity (fluorometric, H-Gln-βNA / H-Gln-AMC)
Format: biochemical
Details: compound from preparative synthesis, purified; read-out: IC50 hQC
Outline: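 Coupled fluorometric assay at 30 °C with pyroglutamyl aminopeptidase, in Tris/HCl pH 8.0 with EDTA, substrate H-Gln-βNA (0.2 mM; ex/em 320/410 nm) or H-Gln-AMC (ex/em 380/460 nm), initiated by QC. Screening: 4 mM inhibitor, substrate at 1 KM; Ki from progress curves fitted to competitive inhibition.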

Sequence of hQC (Q16769 29-361): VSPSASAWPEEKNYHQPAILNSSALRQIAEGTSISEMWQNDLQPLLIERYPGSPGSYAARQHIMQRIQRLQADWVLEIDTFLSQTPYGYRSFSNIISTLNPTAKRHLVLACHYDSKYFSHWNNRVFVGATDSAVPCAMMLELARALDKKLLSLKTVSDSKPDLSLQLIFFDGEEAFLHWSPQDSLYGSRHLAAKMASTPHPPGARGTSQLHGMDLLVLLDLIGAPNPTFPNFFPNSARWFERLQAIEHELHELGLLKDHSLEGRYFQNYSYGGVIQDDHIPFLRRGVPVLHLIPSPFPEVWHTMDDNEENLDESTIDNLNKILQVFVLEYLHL

Row | pIC50 | SMILES
1 | 6.24 | O=C1C(O)=C(c2c[nH]c3ccccc23)C(c2cnc3ccccc3c2)N1c1ccc2[nH]cnc2c1 (stereo not drawn) [Compound 422, 1-(1H-Benzoimidazol-5-yl)-3-hydroxy-4-(1H-indol-3-yl)-5-quinolin-3-yl-1,5-dihydro-pyrrol-2-one]

Same assay, conditions: read-out: IC50

Row | SMILES | pIC50
2 | O=C(O)CC1=C(O)C(=O)N(c2ccc3[nH]cnc3c2)C1c1csc2ccccc12 (stereo not drawn) [Compound 408, [2-Benzo[b]thiophen-3-yl-1-(1H-benzoimidazol-5-yl)-4-hydroxy-5-oxo-2,5-dihydro-1H-pyrrol-3-yl]-acetic acid] | 5.19
3 | CC1=C(O)C(=O)N(c2ccc3[nH]cnc3c2)C1c1c(F)ccc(Cl)c1F (stereo not drawn) [Compound 412, 1-(1H-Benzoimidazol-5-yl)-5-(3-chloro-2,6-difluoro-phenyl)-3-hydroxy-4-methyl-1,5-dihydro-pyrrol-2-one] | 5.38
4 | CC(C)CC(=O)C1=C(O)C(=O)N(c2ccc3[nH]cnc3c2)C1c1ccco1 (stereo not drawn) [Compound 413, 1-(1H-Benzoimidazol-5-yl)-5-furan-2-yl-3-hydroxy-4-(3-methyl-butyryl)-1,5-dihydro-pyrrol-2-one] | 5.83
5 | CC(=O)C1=C(O)C(=O)N(c2ccc3[nH]cnc3c2)C1c1cc(Br)c(O)c(Br)c1 (stereo not drawn) [Compound 414, 4-Acetyl-1-(1H-benzoimidazol-5-yl)-5-(3,5-dibromo-4-hydroxy-phenyl)-3-hydroxy-1,5-dihydro-pyrrol-2-one] | 5.62
6 | CC(=O)C1=C(O)C(=O)N(c2ccc3[nH]cnc3c2)C1c1ccc(C)o1 (stereo not drawn) [Compound 415, 4-Acetyl-1-(1H-benzoimidazol-5-yl)-3-hydroxy-5-(5-methyl-furan-2-yl)-1,5-dihydro-pyrrol-2-one] | 5.86
7 | CC1=C(O)C(=O)N(c2ccc3[nH]cnc3c2)C1c1cccc(C)c1 (stereo not drawn) [Compound 416, 1-(1H-Benzoimidazol-5-yl)-3-hydroxy-4-methyl-5-m-tolyl-1,5-dihydro-pyrrol-2-one] | 5.00
8 | CC1=C(O)C(=O)N(c2ccc3[nH]cnc3c2)C1c1cc(C)ccc1C (stereo not drawn) [Compound 417, 1-(1H-Benzoimidazol-5-yl)-5-(2,5-dimethyl-phenyl)-3-hydroxy-4-methyl-1,5-dihydro-pyrrol-2-one] | 5.04
9 | CC(C)(C)C(=O)C1=C(O)C(=O)N(c2ccc3[nH]cnc3c2)C1c1ccco1 (stereo not drawn) [Compound 419, 1-(1H-Benzoimidazol-5-yl)-4-(2,2-dimethyl-propionyl)-5-furan-2-yl-3-hydroxy-1,5-dihydro-pyrrol-2-one] | 5.39

More lines, in order of rising pIC50, values ahead:

Row | pIC50 | SMILES
10 | 5.86 | CCCCCC(=O)C1=C(O)C(=O)N(c2ccc3[nH]cnc3c2)C1c1cccc(C)c1 (stereo not drawn) [Compound 411, 1-(1H-Benzoimidazol-5-yl)-4-hexanoyl-3-hydroxy-5-m-tolyl-1,5-dihydro-pyrrol-2-one]
11 | 5.99 | CC(=O)C1=C(O)C(=O)N(c2ccc3[nH]cnc3c2)C1c1ccc(C(=O)O)o1 (stereo not drawn) [Compound 410, 5-[3-Acetyl-1-(1H-benzoimidazol-5-yl)-4-hydroxy-5-oxo-2,5-dihydro-1H-pyrrol-2-yl]-furan-2-carboxylic acid]
12 | 6.17 | O=C1C(O)=C(c2c[nH]c3ccccc23)C(c2ccc(CO)o2)N1c1ccc2[nH]cnc2c1 (stereo not drawn) [Compound 409, 1-(1H-Benzoimidazol-5-yl)-3-hydroxy-5-(5-hydroxymethyl-furan-2-yl)-4-(1H-indol-3-yl)-1,5-dihydro-pyrrol-2-one]
13 | 6.51 | O=C(C1=C(O)C(=O)N(c2ccc3[nH]cnc3c2)C1c1ccc(CO)o1)C1CC1 (stereo not drawn) [Compound 418, 1-(1H-Benzoimidazol-5-yl)-4-cyclopropanecarbonyl-3-hydroxy-5-(5-hydroxymethyl-furan-2-yl)-1,5-dihydro-pyrrol-2-one]
14 | 6.66 | CC1=C(O)C(=O)N(c2ccc3[nH]cnc3c2)C1c1cc(F)cc(F)c1F (stereo not drawn) [Compound 407, 1-(1H-Benzoimidazol-5-yl)-3-hydroxy-4-methyl-5-(2,3,5-trifluoro-phenyl)-1,5-dihydro-pyrrol-2-one]
15 | 8.40 | O=C1C(O)=C(c2c[nH]c3ccccc23)C(c2cnc3ccccc3c2)N1c1ccc2[nH]cnc2c1 (stereo not drawn) [Compound 422, 1-(1H-Benzoimidazol-5-yl)-3-hydroxy-4-(1H-indol-3-yl)-5-quinolin-3-yl-1,5-dihydro-pyrrol-2-one]
